Measured values published in patent publication US20190046627A1, “USE OF A GNP-LLO91-99 COMPLEX FOR THE TREATMENT AND PREVENTION OF CANCER” (FUNDACIÓN INSTITUTO DE INVESTIGACIÓN MARQUES DE VALDECILLA, priority 2016, published 2019).
No end group written: not given here.

How the values were obtained:
[1] = test system: murine melanoma B16F10; assay: Reduction of the size of the tumor, subcutaneous murine melanoma in adult mice (Example 2); format: in vivo; conditions: adult C57BL/6 mice, s.c. B16F10 established 7 days, 50 μg/ml inoculated in the tumors for 5 days
Description: (§1) For the study of the reduction of the size of the tumor making use of different therapies and their comparison with that of the invention, 1×10^6 cells of murine melanoma B16F10 were inoculated in a subcutaneous manner in the left ventral flank of 8-12-week old female mice of the C57BL/6 strain.
(§2) After 7 days post-inoculation, 50 μg/ml of the following therapies were inoculated in the tumors for 5 days: LLO91-99 (only peptide from listeriolysin O of Listeria monocytogenes, LLO91-99), GNP (empty gluconanoparticles), GNP-LLO91-99 (gluconanoparticles synthesized with the peptide from listeriolysin O of Listeria monocytogenes, LLO91-99), GNP-GAPDH1-22 (nanoparticles synthesized with the peptide from glyceraldehyde-3-phosphate dehydrogenase of Listeria monocytogenes, GAPDH1-22) or no particle (NT). Dendritic cells loaded with the LLO91-99 (1×10^6 DC-LLO91-99) peptide were also included as a control, a vector previously used in therapy.
(§3) Following this treatment, the mice were sacrificed and the tumors recovered, measuring their size with a gauge.

[2] = test system: A-375, human melanoma; assay: In vitro activation cell markers, flow cytometry; format: cell-based; conditions: 10 μg/ml pre-treatment, A375
Description: (§4) 1.—Tumor cells. The cells used are: Hepa1-6, murine hepatocarcinoma, TC-1, murine lung carcinoma; B16F10, murine melanoma; A-375, human melanoma; hamster melanoma (ATCC).
(§5) 3.—Study of in vitro activation cell markers. The markers of the cell surface of the different tumor cells (1×10^6 cells) that are pre-treated or that are not pre-treated with 10 μg/ml of the GNP-LLO91-99 gold nanoparticles similar to the apoptosis process are analyzed by means of flow cytometry using the following antibodies (Miltenyi Biotech): anti-CD86-V450, anti-CD80-FITC, anti-MHC-II-APC, CD11c-PE, anti-NCAM-PE, anti-PD-1-V450.

[3] = test system: B16F10, murine melanoma; assay: In vitro activation cell markers, flow cytometry; format: cell-based; conditions: 10 μg/ml pre-treatment
Description: as §4, §5

[4] = test system: murine melanoma B16F10; assay: Metastasis in the lung from murine melanoma (Example 3); format: in vivo, mice; conditions: s.c. B16F10, 50 μg/ml inoculated in the tumors for 5 days
Description: For the study of metastasis in the lung of murine melanoma following the use of different therapies and their comparison with that of the invention, 1×10^6 cells of murine melanoma B16F10 were inoculated in a subcutaneous manner just like in FIG. 1. Following 7 days post-inoculation, 50 μg/ml of the following therapeutic particles were inoculated in the tumors for 5 days: GNP (empty gluconanoparticles), GNP-LLO91-99 (gluconanoparticles synthesized with the peptide from listeriolysin O of Listeria monocytogenes, LLO91-99), GNP-GAPDH1-22 (nanoparticles synthesized with the peptide from glyceraldehyde-3-phosphate dehydrogenase of Listeria monocytogenes, GAPDH1-22) or no particle (NT). As a control, the vector previously used in therapy was also included consisting of dendritic cells loaded with the LLO91-99 (1×10^6 DC-LLO91-99) peptide.
Following this treatment, the mice were sacrificed and the lungs removed, which were washed with PBS. Subsequently, the tumor nodules were counted under a magnifying glass, which were observed as black spots on the lungs.

[5] = test system: Hepa1-6, murine hepatocarcinoma; assay: In vitro apoptosis-necrosis, flow cytometry annexin V-APC / 7-ADD; format: cell-based; conditions: 10 μg/ml, 16 hours
Description: as §4
(§6) 2.—In vitro apoptosis-necrosis. The different tumor cells (1×10^6 cells) are treated with 10 μg/ml of the GNP-LLO91-99 gold nanoparticles in culture plates, 16 hours prior to the apoptosis-necrosis analysis, including cells of each type of tumor without treatment with the gold nanoparticles (control). Following washing, the cells are analyzed by means of flow cytometry using two specific products, annexin V conjugated with the APC fluorochrome and the fluorescent marker for binding to DNA, 7-ADD (7-amino-actinomycin D). Apoptosis and necrosis in the tumor cells are analyzed by means of the differential marking with annexin V-APC and 7-ADD expressed as percentages. While the necrosis is indicated as the percentage of cells doubly marked with annexin V-APC and 7-ADD, the apoptosis is expressed as the percentage of cells marked only with annexin V.

[6] = test system: A-375, human melanoma; assay: as above; format: cell-based; conditions: 10 μg/ml, 16 hours, A375
Description: as §4, §6

[7] = test system: TC-1, murine lung carcinoma; assay: as above; format: cell-based; conditions: 10 μg/ml, 16 hours
Description: as §4, §6

[8] = test system: B16F10, murine melanoma; assay: as above; format: cell-based; conditions: 10 μg/ml, 16 hours
Description: as §4, §6

[9] = test system: ovary tumor cells (CHO); assay: In vitro activation cell markers, flow cytometry; format: cell-based, hamster; conditions: 10 μg/ml pre-treatment
Description: as §4, §5

[10] = test system: murine melanoma B16F10; assay: Reduction of the size of the tumor in newborns (Example 6); format: in vivo; conditions: 9-day old Balb/c mice, s.c. B16F10 established 5 days, 50 μg/ml in the tumors for 5 days
Description: as §1, with “tumor in newborns” for “tumor”, “5×10^5” for “1×10^6”, “interscapular area” for “left ventral flank”, “9-day” for “8-12-week”, “Balb/c” for “C57BL/6”
as §2, with “Following 5” for “After 7”, “GAPDH1-22). As” for “GAPDH1-22) or no particle (NT). Dendritic cells loaded with the LLO91-99 (1×10^6 DC-LLO91-99) peptide were also included as”, “therapy was also included, dendritic cells loaded with the LLO91-99 (1×10^5 DC-LLO91-99) peptide.” for “therapy.”
as §3

[11] = In vitro apoptosis-necrosis, flow cytometry annexin V-APC / 7-ADD; format: cell-based, hamster; conditions: 10 μg/ml, 16 hours, CHO
Description: as §4, §6

[12] = test system: melanomas; assay: Subcutaneous tumor transplant model (Example 9); format: in vivo, mice; conditions: subcutaneous transplants, C57BL/6, 50 μg/ml in-situ for 7 days
Description: as §4
(§7) 4.—Subcutaneous tumor transplant model. 8-12 week old females of the strain C57BL/6 are inoculated in the right flank with 1×10^5 tumor cells for 7 days in order to develop a measurable tumor (4-6 mm thickness). Subsequently, the tumors are inoculated in-situ with 50 μg/ml of the GNP-LLO91-99 gold nanoparticles for 7 days. The size of the tumors is measured with a gauge and is expressed in volume using the following formula: (length×(width)^2)/2.

[13] = test system: lung cancer cells; assay: Subcutaneous tumor transplant model (Example 9); format: in vivo, mice; conditions: subcutaneous transplants, C57BL/6, 50 μg/ml in-situ for 7 days
Description: as §4, §7

[14] = test system: hepatocarcinomas; assay: Subcutaneous tumor transplant model (Example 9); format: in vivo, mice; conditions: subcutaneous transplants, C57BL/6, 50 μg/ml in-situ for 7 days
Description: as §4, §7

Substance: GNP-LLO91-99: gluconanoparticles synthesized with the peptide from listeriolysin O of Listeria monocytogenes, LLO91-99 (GYKDGNEYI; also: gold glyconanoparticle conjugate; UniProt P13128 91-99, looked up, fragment)
- therapeutic effect on the melanoma (in words) [1]: does achieve a significant tumor regression
- tumor regression [1]: 90%
- expression of immune cell activation markers [2]: boosted the expression of various activation markers such as MHC-I, MHC-II, CD80 and PD-1
- expression of immune cell activation markers [3]: boosted the expression of various activation markers such as MHC-I, MHC-II, CD80 and PD-1
- formation of metastasis in the lungs (in words) [4]: prevents the formation of metastasis in the lungs
- prevention of the formation of metastasis in the lungs ([4]; lung tumor nodules counted): more than 95%
- effect of inducing apoptosis [5]: much more pronounced
- induction of tumor apoptosis and necrosis [5]: induce both tumor apoptosis and necrosis
- effect of inducing apoptosis [6]: much more pronounced
- effect of inducing apoptosis [7]: much more pronounced
- induction of tumor apoptosis and necrosis [7]: induce both tumor apoptosis and necrosis
- effect of inducing apoptosis [8]: much more pronounced
- expression of immune cell activation markers [9]: did not undergo a variation in any of the markers analyzed
- tumor regression in newborns [10]: 95%
- induction of tumor apoptosis and necrosis / inhibitory effect [11]: do not cause any inhibitory effect
- in vivo inhibitory effect of the tumor [12]: inhibitory effect of the tumor is also observed in vivo
- in vivo inhibitory effect of the tumor [13]: inhibitory effect of the tumor is also observed in vivo
- in vivo inhibitory effect of the tumor [14]: inhibitory effect of the tumor is also observed in vivo
